Laboratory results reported in patent US20070117743A1, “New antitumoral compounds” (priority 2003, published 2007).
Where two headings read alike, the source gives them in different places. Where a SMILES comes first, the peptide text is derived from it. Bridges are numbered along the chain shown (N, C = ends). [ ]: non-standard residue; d: D form. The star is where a group is joined. d(aThr) = C[C@@H](O)[C@@H](N)C(=O)O; Hexanoyl(5-Me) = CC(C)CCCC(=O)*; dCha = N[C@H](CC1CCCCC1)C(=O)O; Orn = NCCC[C@H](N)C(=O)O; Dhb = C/C=C(\N)C(=O)O

What was measured:
Assay type in all cases: cell-based, human
DU-145 = assay: SRB colorimetric assay of cell growth and viability, DU-145; conditions: 48 hours exposure
K-562 = assay: SRB colorimetric assay of cell growth and viability, K-562; conditions: 48 hours exposure; for CC50: read-out: LC50 K-562
HT-29 = assay: SRB colorimetric assay of cell growth and viability, HT-29; conditions: 48 hours exposure; for GI50: read-out: GI50 HT-29; for CC50: read-out: LC50 HT-29
LoVo-Dox = assay: SRB colorimetric assay of cell growth and viability, LoVo-Dox; conditions: 48 hours exposure; for CC50: read-out: LC50 LOVO-DOX
Method in brief: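 After 48 hours continuous exposure to samples spanning 10 to 10^−8 μg/mL, biomass was quantified by sulforhodamine B staining of TCA-fixed cells (OD 490 nm). Cells, 5×10^3 per well in RPMI 1640 10% FBS, had attached 18 hours first; GI, TGI and LC derived from triplicate wells.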

HeLa-APL = assay: SRB colorimetric assay of cell growth and viability, HeLa-APL; conditions: 48 hours exposure; for CC50: read-out: LC50 HELA-APL
SK-BR-3 = assay: SRB colorimetric assay of cell growth and viability, SK-BR-3; conditions: 48 hours exposure
LoVo = assay: SRB colorimetric assay of cell growth and viability, LoVo; conditions: 48 hours exposure; for CC50: read-out: LC50 LOVO
IGROV-ET = assay: SRB colorimetric assay of cell growth and viability, IGROV-ET; conditions: 48 hours exposure; for CC50: read-out: LC50 IGROV-ET
LNCaP = assay: SRB colorimetric assay of cell growth and viability, LNCaP; conditions: 48 hours exposure; for GI50: read-out: GI50 LN-caP; for CC50: read-out: LC50 LN-caP
HeLa = assay: SRB colorimetric assay of cell growth and viability, HeLa; conditions: 48 hours exposure; for CC50: read-out: LC50 HELA
SK-MEL-28 = assay: SRB colorimetric assay of cell growth and viability, SK-MEL-28; conditions: 48 hours exposure; for CC50: read-out: LC50 MEL-28
PANC-1 = assay: SRB colorimetric assay of cell growth and viability, PANC-1; conditions: 48 hours exposure; for CC50: read-out: LC50 PANC-1
A-549 = assay: SRB colorimetric assay of cell growth and viability, A-549; conditions: 48 hours exposure; for GI50: read-out: GI50 A-549; for CC50: read-out: LC50 A-549
IGROV-1 = assay: SRB colorimetric assay of cell growth and viability, IGROV-1; conditions: 48 hours exposure

## C/C=C1\NC(=O)[C@H](Cc2ccccc2)NC(=O)[C@@H](CC2CCCCC2)NC(=O)[C@@H](CC2CCCCC2)NC(=O)[C@H](NC(=O)[C@@H](CC2CCCCC2)NC(=O)[C@H](CCCN)NC(=O)[C@H]2CCCN2C(=O)[C@H](NC(=O)[C@@H](NC(=O)[C@@H](NC(=O)[C@H](NC(=O)CCCC(C)C)C(C)C)[C@@H](C)O)C(C)C)C(C)C)[C@@H](C)OC(=O)[C@H](C(C)C)NC1=O [Compound 11, [D-Cha^4, D-Cha^5, D-Cha^7]-KF] ({Hexanoyl(5-Me)}-[dV]TV[dV][dP][Orn][dCha][d(aThr)][dCha][dCha]F[Dhb]V; ester 8-C)
DU-145
  GI50: 220 nM
  LC50 (concentration causing 50% net cell kill): 2640 nM
  TGI DU-145: 8.56E−07 Molar
K-562
  GI50: 1580 nM
  TGI K-562: 2.56E−06 Molar
  CC50: 4140 nM
HT-29
  TGI HT-29: 1.91E−07 Molar
  GI50: 97.4 nM
  CC50: 377 nM
LoVo-Dox
  GI50: 81.9 nM
  TGI LOVO-DOX: 1.64E−07 Molar
  CC50: 326 nM
HeLa-APL
  GI50: 211 nM
  TGI HELA-APL: 8.31E−07 Molar
  CC50: 2320 nM
SK-BR-3
  GI50: 106 nM
  LC50: 599 nM
  TGI SK-BR-3: 2.52E−07 Molar
LoVo
  GI50: 97.4 nM
  TGI LOVO: 1.99E−07 Molar
  CC50: 406 nM
IGROV-ET
  GI50: 133 nM
  TGI IGROV-ET: 3.03E−07 Molar
  CC50: 1290 nM
LNCaP
  TGI LN-caP: 1.40E−06 Molar
  GI50: 645 nM
  CC50: 3010 nM
HeLa
  GI50: 223 nM
  TGI HELA: 8.93E−07 Molar
  CC50: 2550 nM
SK-MEL-28
  GI50: 455 nM
  TGI MEL-28: 1.28E−06 Molar
  CC50: 3030 nM
PANC-1
  GI50: 1430 nM
  TGI PANC-1: 2.74E−06 Molar
  CC50: 5250 nM
A-549
  TGI A-549: 2.60E−07 Molar
  GI50: 132 nM
  CC50: 511 nM
IGROV-1
  GI50: 190 nM
  LC50 (concentration causing 50% net cell killing): 2990 nM
  TGI IGROV: 5.67E−07 Molar

## C/C=C1\NC(=O)[C@H](Cc2ccccc2)NC(=O)[C@@H](C(C)C)NC(=O)[C@@H]([C@@H](C)CC)NC(=O)[C@H](NC(=O)[C@H](NC(=O)[C@H](CCCNC(=O)C(F)(F)F)NC(=O)[C@H]2CCCN2C(=O)[C@H](NC(=O)[C@@H](NC(=O)[C@@H](NC(=O)[C@H](NC(=O)CC[C@@H](C)CC)C(C)C)[C@@H](C)O)C(C)C)C(C)C)[C@@H](C)CC)[C@@H](C)OC(=O)[C@H](C(C)C)NC1=O [Compound 96, [Orn(N^δTfa)^8, 4(S)MeHex^14]-Kahalalide F]
DU-145; SRB
  GI50: 985 nM
  LC50 (concentration causing 50% net cell kill): 3810 nM
  TGI DU-145: 1.94E−06 Molar
K-562; SRB
  GI50: 4500 nM
  TGI K-562: 6.35E−06 Molar
  CC50: 6350 nM
HT-29; SRB
  TGI HT-29: 2.11E−07 Molar
  GI50: 101 nM
  CC50: 442 nM
LoVo-Dox; SRB
  GI50: 153 nM
  TGI LOVO-DOX: 2.93E−07 Molar
  CC50: 559 nM
HeLa-APL; SRB
  GI50: 686 nM
  TGI HELA-APL: 1.62E−06 Molar
  CC50: 3820 nM
SK-BR-3; SRB
  GI50: 64.8 nM
  LC50: 560 nM
  TGI SK-BR-3: 1.91E−07 Molar
LoVo; SRB
  GI50: 140 nM
  TGI LOVO: 2.64E−07 Molar
  CC50: 500 nM
IGROV-ET; SRB
  GI50: 178 nM
  TGI IGROV-ET: 3.32E−07 Molar
  CC50: 619 nM
LNCaP; SRB
  TGI LN-caP: 4.60E−06 Molar
  GI50: 1730 nM
  CC50: 6350 nM
HeLa; SRB
  GI50: 244 nM
  TGI HELA: 7.24E−07 Molar
  CC50: 2590 nM
SK-MEL-28; SRB
  GI50: 1220 nM
  TGI MEL-28: 2.15E−06 Molar
  CC50: 3770 nM
PANC-1; SRB
  GI50: 6040 nM
  TGI PANC-1: 6.35E−06 Molar
  CC50: 6350 nM
A-549; SRB
  TGI A-549: 2.57E−06 Molar
  GI50: 1260 nM
  CC50: 5230 nM
IGROV-1; SRB
  GI50: 184 nM
  LC50 (concentration causing 50% net cell killing): 607 nM
  TGI IGROV: 3.34E−07 Molar
